# Results from the supplement of paper PMC12463676, “Small-molecule dissolution of stress granules by redox modulation benefits ALS models” (Nature Chemical Biology, 2025).
# Compound: NC(=O)CCCCC1CCSS1 [lipoamide]
# Assay: thermal stability z-score vs DMSO; higher = more thermally stabilized by treatment
# Conditions: HeLa; lipoamide concentration 100 µM; arsenate co-treatment: 1 mM arsenate 1 h
# Experimental: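 Cellular thermal proteome profiling in HeLa cells. Cells were treated with 100 µM lipoamide for 1 h, with or without 1 mM arsenate for a further 1 h, then heated to ten temperatures (37-66.3 °C), and soluble protein was quantified by TMT mass spectrometry relative to 0.1% DMSO controls. The thermal stability score (sum of log2 fold changes minus the abundance score) was transformed to a z-score; mean of n = 3 experiments.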
# 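Also: each temperature applied for 3 min, abundance score taken as mean log2 fold change at the two lowest temperatures, z-score obtained by mean subtraction and division by SD.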
# Chain of UniProt Q709F0 (Q709F0 whole entry): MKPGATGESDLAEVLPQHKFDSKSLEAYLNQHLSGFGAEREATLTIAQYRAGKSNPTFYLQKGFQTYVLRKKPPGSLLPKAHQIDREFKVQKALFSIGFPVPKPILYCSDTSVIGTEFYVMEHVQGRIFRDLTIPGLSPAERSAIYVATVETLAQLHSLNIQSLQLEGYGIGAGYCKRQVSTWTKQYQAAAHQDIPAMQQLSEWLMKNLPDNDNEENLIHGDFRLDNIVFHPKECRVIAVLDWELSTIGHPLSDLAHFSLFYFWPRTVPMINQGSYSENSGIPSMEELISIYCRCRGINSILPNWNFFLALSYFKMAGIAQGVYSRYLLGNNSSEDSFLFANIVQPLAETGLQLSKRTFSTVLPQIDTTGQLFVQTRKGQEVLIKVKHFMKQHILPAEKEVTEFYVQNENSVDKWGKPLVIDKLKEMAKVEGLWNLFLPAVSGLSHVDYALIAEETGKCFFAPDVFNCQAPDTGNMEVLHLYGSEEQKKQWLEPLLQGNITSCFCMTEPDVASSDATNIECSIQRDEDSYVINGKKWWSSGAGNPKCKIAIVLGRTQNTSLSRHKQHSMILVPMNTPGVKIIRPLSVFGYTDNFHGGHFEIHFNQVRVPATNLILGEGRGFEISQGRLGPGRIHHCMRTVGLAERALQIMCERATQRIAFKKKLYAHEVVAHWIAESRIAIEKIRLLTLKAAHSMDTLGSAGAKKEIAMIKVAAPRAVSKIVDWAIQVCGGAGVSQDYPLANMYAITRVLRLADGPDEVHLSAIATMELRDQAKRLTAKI
# Chain of UniProt Q8IY37 (Q8IY37 whole entry): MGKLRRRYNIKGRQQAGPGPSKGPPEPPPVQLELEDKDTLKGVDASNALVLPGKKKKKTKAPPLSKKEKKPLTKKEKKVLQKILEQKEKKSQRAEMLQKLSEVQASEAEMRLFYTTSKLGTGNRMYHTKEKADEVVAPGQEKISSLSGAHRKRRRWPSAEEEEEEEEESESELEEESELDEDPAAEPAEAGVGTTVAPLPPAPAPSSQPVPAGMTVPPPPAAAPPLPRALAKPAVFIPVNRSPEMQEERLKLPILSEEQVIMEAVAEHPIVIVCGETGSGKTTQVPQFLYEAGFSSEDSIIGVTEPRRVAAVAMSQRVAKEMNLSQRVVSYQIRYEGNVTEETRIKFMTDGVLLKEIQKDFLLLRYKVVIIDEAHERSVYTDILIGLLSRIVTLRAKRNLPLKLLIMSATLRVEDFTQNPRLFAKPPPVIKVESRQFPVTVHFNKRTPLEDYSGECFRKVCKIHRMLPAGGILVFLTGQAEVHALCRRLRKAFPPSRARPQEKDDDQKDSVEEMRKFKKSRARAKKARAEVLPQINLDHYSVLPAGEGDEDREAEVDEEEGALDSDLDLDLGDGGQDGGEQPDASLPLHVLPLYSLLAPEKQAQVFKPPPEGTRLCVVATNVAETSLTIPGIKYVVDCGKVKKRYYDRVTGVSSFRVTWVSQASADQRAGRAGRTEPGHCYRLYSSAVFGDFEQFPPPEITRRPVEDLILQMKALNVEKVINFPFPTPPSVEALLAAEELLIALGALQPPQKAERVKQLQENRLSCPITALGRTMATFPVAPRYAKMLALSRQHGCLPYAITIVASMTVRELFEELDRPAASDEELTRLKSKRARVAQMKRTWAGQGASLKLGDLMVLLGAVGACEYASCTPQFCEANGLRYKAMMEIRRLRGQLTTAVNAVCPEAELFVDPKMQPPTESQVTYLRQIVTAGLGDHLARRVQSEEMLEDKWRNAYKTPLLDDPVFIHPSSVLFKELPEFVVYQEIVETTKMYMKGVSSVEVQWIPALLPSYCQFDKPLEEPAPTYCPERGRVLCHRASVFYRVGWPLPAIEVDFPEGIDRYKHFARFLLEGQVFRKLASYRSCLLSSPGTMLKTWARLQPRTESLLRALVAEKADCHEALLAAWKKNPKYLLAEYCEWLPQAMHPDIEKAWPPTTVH
# Chain of UniProt Q9UJY1 (Q9UJY1 whole entry): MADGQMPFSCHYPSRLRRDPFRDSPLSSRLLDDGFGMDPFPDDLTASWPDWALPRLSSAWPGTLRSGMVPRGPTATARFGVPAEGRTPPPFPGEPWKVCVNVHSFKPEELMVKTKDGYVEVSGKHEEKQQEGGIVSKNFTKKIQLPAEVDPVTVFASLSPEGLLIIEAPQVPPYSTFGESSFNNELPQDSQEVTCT
# Chain of UniProt O15160 (O15160 whole entry): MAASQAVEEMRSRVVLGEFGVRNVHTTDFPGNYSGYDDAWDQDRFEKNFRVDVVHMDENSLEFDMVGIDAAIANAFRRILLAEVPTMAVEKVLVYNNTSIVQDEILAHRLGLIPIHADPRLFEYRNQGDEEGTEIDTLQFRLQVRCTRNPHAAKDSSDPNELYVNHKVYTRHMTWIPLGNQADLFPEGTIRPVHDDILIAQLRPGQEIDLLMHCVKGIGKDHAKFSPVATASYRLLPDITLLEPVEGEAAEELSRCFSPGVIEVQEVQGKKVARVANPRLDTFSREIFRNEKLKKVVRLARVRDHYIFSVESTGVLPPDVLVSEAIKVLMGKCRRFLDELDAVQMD
# Chain of UniProt Q9BZE2 (Q9BZE2 whole entry): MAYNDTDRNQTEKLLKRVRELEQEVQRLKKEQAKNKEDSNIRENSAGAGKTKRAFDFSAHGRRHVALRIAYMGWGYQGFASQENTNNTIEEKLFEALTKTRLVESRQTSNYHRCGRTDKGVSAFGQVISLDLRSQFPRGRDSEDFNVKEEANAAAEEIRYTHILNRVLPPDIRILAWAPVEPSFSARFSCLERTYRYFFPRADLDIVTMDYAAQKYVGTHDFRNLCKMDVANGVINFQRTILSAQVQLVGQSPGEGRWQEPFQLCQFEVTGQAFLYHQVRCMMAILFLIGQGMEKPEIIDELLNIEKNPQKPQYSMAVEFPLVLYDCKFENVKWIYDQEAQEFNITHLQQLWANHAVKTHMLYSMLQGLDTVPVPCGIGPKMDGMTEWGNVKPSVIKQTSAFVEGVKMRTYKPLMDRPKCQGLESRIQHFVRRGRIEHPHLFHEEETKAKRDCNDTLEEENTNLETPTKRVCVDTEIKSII
# Chain of UniProt Q8N6T3 (Q8N6T3 whole entry): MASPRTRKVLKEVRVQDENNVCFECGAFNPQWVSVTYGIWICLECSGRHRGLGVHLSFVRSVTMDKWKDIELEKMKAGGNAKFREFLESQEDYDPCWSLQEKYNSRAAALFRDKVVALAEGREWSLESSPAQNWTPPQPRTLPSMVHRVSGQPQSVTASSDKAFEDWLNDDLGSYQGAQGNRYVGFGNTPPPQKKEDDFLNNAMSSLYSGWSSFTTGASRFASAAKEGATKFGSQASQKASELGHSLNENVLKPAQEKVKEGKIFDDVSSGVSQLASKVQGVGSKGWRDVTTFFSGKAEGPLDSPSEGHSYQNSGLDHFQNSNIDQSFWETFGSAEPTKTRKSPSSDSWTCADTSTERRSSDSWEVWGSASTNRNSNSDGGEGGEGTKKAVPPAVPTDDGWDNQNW
# Chain of UniProt Q8TCF1 (Q8TCF1 whole entry): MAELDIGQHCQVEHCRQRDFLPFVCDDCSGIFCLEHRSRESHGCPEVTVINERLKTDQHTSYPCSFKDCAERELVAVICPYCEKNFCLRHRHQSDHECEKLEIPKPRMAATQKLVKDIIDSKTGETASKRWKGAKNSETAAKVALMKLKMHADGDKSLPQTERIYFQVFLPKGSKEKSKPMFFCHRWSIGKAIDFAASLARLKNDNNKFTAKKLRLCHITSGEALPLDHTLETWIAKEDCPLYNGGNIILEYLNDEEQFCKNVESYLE
# Chain of UniProt Q15233 (Q15233 whole entry): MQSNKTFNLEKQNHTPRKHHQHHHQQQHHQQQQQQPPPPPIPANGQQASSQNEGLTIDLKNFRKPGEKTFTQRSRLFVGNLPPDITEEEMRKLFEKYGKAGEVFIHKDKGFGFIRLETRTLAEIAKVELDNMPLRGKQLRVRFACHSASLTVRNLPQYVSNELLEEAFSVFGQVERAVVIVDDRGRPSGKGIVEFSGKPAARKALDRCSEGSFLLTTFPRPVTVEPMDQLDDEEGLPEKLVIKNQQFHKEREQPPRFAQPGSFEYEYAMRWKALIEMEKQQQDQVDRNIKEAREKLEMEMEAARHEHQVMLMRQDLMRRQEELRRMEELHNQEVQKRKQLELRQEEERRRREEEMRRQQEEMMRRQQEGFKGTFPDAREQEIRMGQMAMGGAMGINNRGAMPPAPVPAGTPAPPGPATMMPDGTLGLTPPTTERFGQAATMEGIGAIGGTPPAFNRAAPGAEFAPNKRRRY
# Chain of UniProt Q96S55 (Q96S55 whole entry): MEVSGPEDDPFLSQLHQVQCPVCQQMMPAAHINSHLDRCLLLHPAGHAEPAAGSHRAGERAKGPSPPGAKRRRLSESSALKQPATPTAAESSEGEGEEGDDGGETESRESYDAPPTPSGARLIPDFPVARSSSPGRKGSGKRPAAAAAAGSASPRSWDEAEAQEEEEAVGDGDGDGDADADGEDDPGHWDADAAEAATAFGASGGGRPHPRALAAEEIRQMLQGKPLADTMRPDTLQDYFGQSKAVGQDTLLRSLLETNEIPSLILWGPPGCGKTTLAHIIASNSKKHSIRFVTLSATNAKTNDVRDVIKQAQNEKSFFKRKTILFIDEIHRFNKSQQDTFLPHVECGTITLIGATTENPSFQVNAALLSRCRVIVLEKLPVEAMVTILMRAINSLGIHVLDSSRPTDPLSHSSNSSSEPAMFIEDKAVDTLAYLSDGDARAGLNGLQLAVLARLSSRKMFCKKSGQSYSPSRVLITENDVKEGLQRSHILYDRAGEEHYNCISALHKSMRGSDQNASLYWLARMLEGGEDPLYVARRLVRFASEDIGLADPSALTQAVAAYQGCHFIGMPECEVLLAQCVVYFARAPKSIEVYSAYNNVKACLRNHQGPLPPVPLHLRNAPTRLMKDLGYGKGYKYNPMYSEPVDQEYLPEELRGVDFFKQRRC
# Chain of UniProt Q9BQ61 (Q9BQ61 whole entry): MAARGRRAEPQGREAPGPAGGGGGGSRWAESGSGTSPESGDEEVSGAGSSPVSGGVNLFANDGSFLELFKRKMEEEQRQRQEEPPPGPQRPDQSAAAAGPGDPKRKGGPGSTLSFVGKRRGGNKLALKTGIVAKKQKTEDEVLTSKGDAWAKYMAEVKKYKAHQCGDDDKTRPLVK
row,Target,thermal stability z-score
1,SYMPK (UniProt Q92797),0.324
2,C19ORF43 (UniProt Q9BQ61),0.121
3,WRNIP1 (UniProt Q96S55),-0.272
4,AACS (UniProt Q86V21),-0.257
5,SP100 (UniProt P23497),3.43
6,PGRMC1 (UniProt O00264),0.421
7,ACAD11 (UniProt Q709F0),-0.363
8,ARPC5 (UniProt O15511),0.9
9,MRPS35 (UniProt P82673),-0.663
10,XRN2 (UniProt Q9H0D6),0.575
11,AASDHPPT (UniProt Q9NRN7),0.269
12,DHRS13 (UniProt Q6UX07),0.049
13,PUS3 (UniProt Q9BZE2),0.378
14,CACUL1 (UniProt Q86Y37),0.0904
15,HSPB8 (UniProt Q9UJY1),-0.255
16,VARS2 (UniProt Q5ST30),-0.824
17,CHMP6 (UniProt Q96FZ7),0.476
18,H1F0 (UniProt P07305),0.135
19,FKBP15 (UniProt Q5T1M5),-0.422
20,NONO (UniProt Q15233),1.05
21,ARFGAP1 (UniProt Q8N6T3),-0.303
22,ZFAND1 (UniProt Q8TCF1),0.233
23,POLR1C (UniProt O15160),0.267
24,RANGAP1 (UniProt P46060),0.0948
25,ZNF830 (UniProt Q96NB3),1.38
26,DHX37 (UniProt Q8IY37),0.321
27,STX3 (UniProt Q13277),0.221
28,MGAT4B (UniProt Q9UQ53),0.713

# Same assay, conditions: HeLa; lipoamide concentration 100 µM; arsenate co-treatment: none
row,Target,thermal stability z-score
1,FERMT1 (UniProt Q9BQL6),0.904
2,CD109 (UniProt Q6YHK3),-1.01
3,SEZ6L2 (UniProt Q6UXD5),2.4
4,RAD51AP1 (UniProt Q96B01),-0.213
5,TWF1 (UniProt Q12792),0.245
6,APC (UniProt P25054),0.273
7,PPM1H (UniProt Q9ULR3),0.00662
8,HSPB1 (UniProt P04792),-0.459
9,B3GLCT (UniProt Q6Y288),-1.54
10,FGF2 (UniProt P09038),0.269
11,DUS1L (UniProt Q6P1R4),-0.547
12,G3BP2 (UniProt Q9UN86),-0.411
13,FASTKD2 (UniProt Q9NYY8),0.158
14,TMED5 (UniProt Q9Y3A6),-1.51
15,CRIP2 (UniProt P52943),0.146
16,ZZEF1 (UniProt O43149),0.201
17,NXN (UniProt Q6DKJ4),0.152
18,KIF20A (UniProt O95235),0.152
19,KIAA2013 (UniProt Q8IYS2),1.5
20,IDE (UniProt P14735),0.717
21,VRK1 (UniProt Q99986),0.423
22,ARV1 (UniProt Q9H2C2),0.473
23,RAB30 (UniProt Q15771),-0.0453
24,MRPL27 (UniProt Q9P0M9),0.00566
25,PDK1 (UniProt Q15118),-0.0874
26,PRMT7 (UniProt Q9NVM4),0.259
27,OFD1 (UniProt O75665),0.0566
28,SYMPK (UniProt Q92797),0.338

row,Target,thermal stability z-score
1,C19ORF43 (UniProt Q9BQ61),0.217
2,WRNIP1 (UniProt Q96S55),-0.113
3,AACS (UniProt Q86V21),-0.135
4,SP100 (UniProt P23497),0.96
5,PGRMC1 (UniProt O00264),0.452
6,ACAD11 (UniProt Q709F0),0.0251
7,ARPC5 (UniProt O15511),0.484
8,MRPS35 (UniProt P82673),-0.362
9,XRN2 (UniProt Q9H0D6),0.495
10,AASDHPPT (UniProt Q9NRN7),0.269
11,DHRS13 (UniProt Q6UX07),0.274
12,PUS3 (UniProt Q9BZE2),-0.095
13,CACUL1 (UniProt Q86Y37),0.129
14,HSPB8 (UniProt Q9UJY1),0.0407
15,VARS2 (UniProt Q5ST30),-0.273
16,CHMP6 (UniProt Q96FZ7),0.273
17,H1F0 (UniProt P07305),-0.22
18,FKBP15 (UniProt Q5T1M5),-0.17
19,NONO (UniProt Q15233),0.927
20,ARFGAP1 (UniProt Q8N6T3),0.304
21,ZFAND1 (UniProt Q8TCF1),0.29
22,POLR1C (UniProt O15160),0.621
23,RANGAP1 (UniProt P46060),0.327
24,ZNF830 (UniProt Q96NB3),0.482
25,DHX37 (UniProt Q8IY37),0.303
26,STX3 (UniProt Q13277),-0.315
27,MGAT4B (UniProt Q9UQ53),-0.264
